The results in this text go back to US20110015068A1, “Herbicidal Compositions Comprising Pyroxasulfone V” (BASF SE, priority 2008, published 2011).

What all share (assay type): in vivo
The subject of one assay is Setaria italica. Description: pre-emergence greenhouse test, SETIT. To be noted: Setaria italica, 25 g ai/ha, read-out: observed % activity. The text has this: (§1) For the pre-emergence treatment, directly after sowing the active compounds, which had been suspended or emulsified in water, were applied by means of finely distributed nozzles. The containers were irrigated gently to promote germination and growth and subsequently covered with transparent plastic hoods until plant had rooted. This cover caused uniform germination of the tests plants, unless this was adversely affected by active compounds.
(§2) The respective herbicides A and/or safener were formulated as 10% by weight strength suspension concentrate and introduced to the spray liquor with the amount of solvent system used for applying the active compound. Herbicide B and/or safener were used as commercially available formulations and introduced to the spray liquor with the amount of solvent system used for applying the active compound. In the examples, the solvent used was water.
(§3) The test period extended over 21 days. During this time, the plants were tended, and their response to the treatments with active compound was evaluated.
(§4) The evaluation for the damage caused by the chemical compositions was carried out using a scale from 0 to 100%, compared to the untreated control plants. Here, 0 means no damage and 100 means complete destruction of the plants.

Assay [1] relates to Sorghum halepense. Nature of the assay: pre-emergence greenhouse test, SORHA. To be noted: Sorghum halepense, 25 g ai/ha, read-out: observed % activity.
Description: as §1, §2, §3, §4

A further assay relates to Chenopodium album. Description: pre-emergence greenhouse test, CHEAL. The conditions noted are these: Chenopodium album, read-out: observed % activity; for inhibition at 25 g/ha: 25 g ai/ha; for inhibition at 50 g/ha: 50 g ai/ha.
Description: as §1, §2, §3, §4

For the next assay, the system named is Echinochloa crus-galli. Description: post-emergence greenhouse test, ECHCG. To be noted: for inhibition at 13 g/ha: Echinochloa crus-galli, 13 g ai/ha, read-out: observed % activity.
Description: (§5) For the post-emergence treatment, the test plants were first grown to a height of 3 to 20 cm, depending on the plant habit, and only then treated. Here, the herbicidal compositions were suspended or emulsified in water as distribution medium and sprayed using finely distributing nozzles.
as §2, §3, §4

The next assay concerns Setaria lutescens. Description: post-emergence greenhouse test, SETLU. The conditions noted are these: Setaria pumila, 13 g ai/ha, read-out: observed % activity.
Description: as §5, §2, §3, §4

The subject of assay [2] is Sorghum halepense. Nature of the assay: post-emergence greenhouse test, SORHA. The conditions noted are these: Sorghum halepense, 50 g ai/ha, read-out: observed % activity.
Description: as §5, §2, §3, §4

In another assay the test system is Galium aparine. Description: post-emergence greenhouse test, GALAP. To be noted: for inhibition at 25 g/ha / inhibition at 100 g/ha: Galium aparine, read-out: observed % activity; for inhibition at 25 g/ha: 25 g ai/ha; for inhibition at 100 g/ha: 100 g ai/ha.
Description: as §5, §2, §3, §4

In the next assay the test system is Setaria faberii. Nature of the assay: post-emergence greenhouse test, SETFA. To be noted: 50 g ai/ha, 20 DAT.
Description: as §5, §2, §3, §4

Where two headings read alike, the source gives them in different places.

With `Cn1nc(C(F)(F)F)c(CS(=O)(=O)C2=NOC(C)(C)C2)c1OC(F)F` [pyroxasulfone, 3-[5-(difluoromethoxy)-1-methyl-3-(trifluoromethyl)pyrazol-4-ylmethylsulfonyl]-4,5-dihydro-5,5-dimethyl-1,2-oxazole], the inhibition at 25 g/ha with Setaria italica (192 h, 8 DAT) is 75%; in the assay with Setaria italica (480 h, 20 DAT), 98%; in the assay on Sorghum halepense [1] (192 h, 8 DAT), 75%; in the assay on Sorghum halepense [1] (480 h, 20 DAT), 95%; in the assay with Chenopodium album (192 h, 8 DAT) it was 65%; with Chenopodium album (480 h, 20 DAT), 95%. The inhibition at 25 g/ha worked out at 60% with Galium aparine (192 h, 8 DAT) and 85% with Galium aparine (480 h, 20 DAT). For the same compound, the inhibition at 50 g/ha in the assay with Chenopodium album (192 h, 8 DAT) was found to be 70%; with Chenopodium album (480 h, 20 DAT), 98%; in the assay on Sorghum halepense [2] (192 h, 8 DAT) it was 65%; with Sorghum halepense [2] (480 h, 20 DAT), 90%. The “observed activity in % destruction” value in the assay with Echinochloa crus-galli (50 g ai/ha, 20 DAT, Table 3) is 80%; with Galium aparine (12.5 g ai/ha, 20 DAT, Table 4) it was 40%; in the assay with Setaria faberii (Table 3) it was 85%; in the assay on Setaria faberii (Table 4), 85%. The inhibition at 13 g/ha with Echinochloa crus-galli (192 h, 8 DAT) came out at 25%; in the assay on Echinochloa crus-galli (480 h, 20 DAT) it was 80%; in the assay on Setaria lutescens (192 h, 8 DAT), 0%; with Setaria lutescens (480 h, 20 DAT), 65%. The inhibition at 100 g/ha is 70% in the assay with Galium aparine (192 h, 8 DAT) and 90% in the assay on Galium aparine (480 h, 20 DAT).
